Laboratory results as given in patent US4175133A, “1,2-Diaminocyclohexane platinum (II) complexes having antineoplastic activity against L1210 leukemia” (priority 1977, dated 1979).
Structures can show the parent of a compound that is named as a salt.

How the values were obtained:
L1210 leukemia [1] = test: antineoplastic activity against L1210 leukemia in mice, individual treatment (10^5 L1210 cells ip); assay type: in vivo; conditions: for % ILS: 10^5 cells; for Dose/Injection range found safe and effective for providing %ILS of at least 25%, Schedule B: ip injections on days 1, 5 and 9 after implant; for Dose/Injection range found safe and effective for providing %ILS of at least 25%, Schedule C: ip injections on each of days 1-9 after implant; for Dose/Injection range found safe and effective for providing %ILS of at least 25%, Schedule A: single ip injection on day 1 after implant
Experimental: Schedule A consisted of a single injection administered ip on the first day following implant of the L1210 leukemia cells. (i.e., 24 hours after implant). Schedule B consisted of a three-injection regimen, with one injection being administered ip on each of the first, fifth and ninth days following implant. Schedule C consisted of a nine-injection regimen, with one injection being administered ip on each of the first through ninth days following implant.
In this set of tests, the mice received 10^5 L1210 leukemia cells by ip injection, and were divided into groups of 10, including a control group.

L1210 leukemia [2] = test: combination chemotherapy against L1210 leukemia in mice (10^6 L1210 cells ip, schedule A); assay type: in vivo; conditions: Yoshi-864 and cyclophosphamide 75 mg/kg each; for 60-day Survivors: out of 10, sulfato complex 4 mg/kg
Sarcoma 180 = conditions: Cleare et al 1973; cited from earlier work
L1210 leukemia [3] = test: combination chemotherapy against L1210 leukemia in mice (10^6 L1210 cells ip, schedule A); assay type: in vivo; conditions: Yoshi-864 and cyclophosphamide 75 mg/kg each; for % ILS: dichloro complex 2.5 mg/kg; for 60-Day Survivors: out of 10, dichloro complex 2.5 mg/kg
Description: The significance of this test system in evaluating potential antineoplastic agents and the test protocol therefor, are described in detail by Geran et al, "Protocols for Screening Chemical Agents and Natural Products Against Animal Tumors and Other Biological Systems" (Third Edition), Cancer Chemotherapy Reports, Part 3, Volume 3, No. 2, Pages 1-103, September 1972. Briefly, the test procedure involves implanting L1210 leukemia cells into mice by intraperitoneal (i.p.) injection, beginning i.p. treatment with the test drug 24 hours after implant, and determining the antineoplastic activity of the test drug at optimum dose levels and schedules of administration as the percent increase in life span (%ILS) of the treated mice over the untreated control mice.
In this set of tests, the mice received by ip injection 10^6 L1210 leukemia cells, which produces a somewhat more advanced stage of the disease after 24 hours than is obtained upon using 10^5 cells as described in the previous set of tests. The mice were then divided into groups of ten, including a control group, and all mice within the same group were given the same treatment. Treatment was administered ip employing the A schedule of administration. […] The treatments tested were each of the three treating agents by themselves and the dichloro complex in combination with each of the other two treating agents. The resulting %ILS values and the number of mice (out of the group of 10) which survived sixty days following implant, are set forth in Table III.

L1210 leukemia [4] = conditions: Gale et al 1974; cited from earlier work
[5] = tested on: ADJ/PC6A plasma cell tumor; conditions: in comparison with cis-dichlorodiammineplatinum (II); Connors et al 1972; cited from earlier work
cancer = conditions: in vivo; cited from earlier work
L1210 leukemia [6] = test: antineoplastic activity of hydroxonitrato complex against L1210 leukemia in mice (10^6 L1210 cells ip); assay type: in vivo; conditions: Schedule A
Experimental: The mice received by ip injection 10^6 L1210 leukemia cells, which produces a somewhat more advance stage of the disease after 24 hours than is obtained upon using 10^5 cells as described previously. The mice were then divided into groups of six, including a control group. […] The highest %ILS value obtained was 144 at a dose level of 10 mg/kg.

[7] = highest %ILS regardless of schedule or dose level
[8] = out of 10, malonato complex 15 mg/kg
[9] = out of 10, dinitrato complex 3 mg/kg
[10] = hydroxymalonato complex 30 mg/kg
[11] = out of 10, hydroxymalonato complex 30 mg/kg

Compound	level of antineoplastic activity greater than that achieved with the dichloro complex (L1210 leukemia [1]; [7])	Dose/Injection range found safe and effective for providing %ILS of at least 25%, Schedule B (L1210 leukemia [1])	Dose/Injection range found safe and effective for providing %ILS of at least 25%, Schedule C (L1210 leukemia [1])	Dose/Injection range found safe and effective for providing %ILS of at least 25%, Schedule A (L1210 leukemia [1])	% ILS (L1210 leukemia [2]; malonato complex 15 mg/kg)	60-Day Survivors (L1210 leukemia [2]; [8])	% ILS (L1210 leukemia [2]; dinitrato complex 3 mg/kg)	60-Day Survivors (L1210 leukemia [2]; [9])	60-Day Survivors (L1210 leukemia [3])	% ILS (L1210 leukemia [2]; [10])	60-Day Survivors (L1210 leukemia [2]; [11])	60-day Survivors (L1210 leukemia [2])	% ILS (L1210 leukemia [2]; sulfato complex 4 mg/kg)	other results
NC1CCCCC1N.O=C([O-])CC(=O)[O-].[Pt+2] (centres unmarked) [Malonato complex, malonato (1,2-diaminocyclohexane) platinum (II)]	77%	10 to 40 mg/kg	5 to 20 mg/kg	2.5 to 160 mg/kg	80%	0 mice	–	–	–	–	–	–	–	% ILS (L1210 leukemia [1]; Schedule A, 2.5 mg/kg/injection ip): 258%; % ILS (L1210 leukemia [1]; Schedule A, 40.0 mg/kg/injection ip): 271%; % ILS (L1210 leukemia [1]; Schedule B, 40.0 mg/kg/injection ip): 157%; % ILS (L1210 leukemia [1]; Schedule C, 10.0 mg/kg/injection ip): 219%; antitumor activity against Sarcoma 180 (in words) (Sarcoma 180): only marginal antitumor activity
NC1CCCCC1N.O=[N+]([O-])[O-].O=[N+]([O-])[O-].[Pt+2] (centres unmarked) [Dinitrato complex, dinitrato (1,2-diaminocyclohexane) platinum (II)]	83%	0.25 to 4 mg/kg	0.05 to 2 mg/kg	0.5 to 8 mg/kg	–	–	110%	0 mice	–	–	–	–	–	% ILS (L1210 leukemia [1]; Schedule A, 4.0 mg/kg/injection ip): 113%; % ILS (L1210 leukemia [1]; Schedule B, 4.0 mg/kg/injection ip): 247%; % ILS (L1210 leukemia [1]; Schedule C, 0.5 mg/kg/injection ip): 281%
NC1CCCCC1N.[Cl][Pt][Cl] (centres unmarked) [Dichloro complex, dichloro (1,2-diaminocyclohexane) platinum (II)]	–	–	–	–	–	–	–	–	0 mice	–	–	–	–	% ILS (L1210 leukemia [1]; Schedule A, 6.25 mg/kg/injection ip): 114%; % ILS (L1210 leukemia [1]; Schedule B, 8.0 mg/kg/injection ip): 113%; % ILS (L1210 leukemia [1]; Schedule C, 2.0 mg/kg/injection ip): 153%; % ILS (L1210 leukemia [3]): 73%; combination with cyclophosphamide (in words) (L1210 leukemia [4]): combined synergistically; effectiveness against L1210 leukemia (in words) (L1210 leukemia [4]): highly effective; increase in mean survival time in comparison with cis-dichlorodiammineplatinum (II) (L1210 leukemia [4]): up to 54%; antitumor activity against Sarcoma 180 (in words) (Sarcoma 180): only marginal antitumor activity; ID50 (in words) [5]: quite similar to those of cis-dichlorodiammineplatinum (II); LD50 (in words) [5]: quite similar to those of cis-dichlorodiammineplatinum (II)
hydroxymalonato (1,2-diaminocyclohexane) platinum (II) [Hydroxymalonato complex]	111%	5 to 37.5 mg/kg	1 to 15 mg/kg	2 to 150 mg/kg	–	–	–	–	–	118%	0 mice	–	–	% ILS (L1210 leukemia [1]; Schedule A, 75.0 mg/kg/injection ip): 97%; % ILS (L1210 leukemia [1]; Schedule B, 37.5 mg/kg/injection ip): 162%; level of antineoplastic activity greater than that achieved with the malonato complex (L1210 leukemia [1]; [7]): 19%; potency against L1210 leukemia relative to malonato complex (in words) (L1210 leukemia [1]; in comparison with malonato complex): even greater potency; water solubility: 1500 µg/mL
N.N.[Cl][Pt][Cl] [cis-dichlorodiammineplatinum (II)]	–	–	–	–	–	–	–	–	–	–	–	–	–	therapeutic index (in words) (cancer): rather low therapeutic index
NC1CCCCC1N.O=[N+]([O-])[O-].[OH-].[Pt+2] (centres unmarked) [Hydroxonitrato complex, hydroxonitrato (1,2-diaminocyclohexane) platinum (II)]	–	1 to 5 mg/kg	0.3 to 1.25 mg/kg	2.5 to 15 mg/kg	–	–	–	–	–	–	–	–	–	% ILS (L1210 leukemia [6]; 10 mg/kg ip, 10^6 cells): 144%; greater %ILS value than dichloro complex (L1210 leukemia [6]; 10^6 cells vs dichloro complex at 10^5 cells): 26%
NC1CCCCC1N.O=S(=O)([O-])[O-].[Pt+2] (centres unmarked) [Sulfato complex, sulfato (1,2-diaminocyclohexane) platinum (II)]	86%	0.2 to 5 mg/kg	0.1 to 1.2 mg/kg	0.5 to 10 mg/kg	–	–	–	–	–	–	–	0 mice	119%	% ILS (L1210 leukemia [1]; Schedule A, 5.0 mg/kg/injection ip): 116%; % ILS (L1210 leukemia [1]; Schedule B, 3.33 mg/kg/injection ip): 285%; % ILS (L1210 leukemia [1]; Schedule C, 0.6 mg/kg/injection ip): 239%
CS(=O)(=O)OCCCNCCCOS(C)(=O)=O [Yoshi-864, 1-propanol, 3,3'-iminodi-,dimethanesulfonate (ester) hydrochloride]	–	–	–	–	112%	0 mice	116%	0 mice	0 mice	117%	0 mice	0 mice	95%	% ILS (L1210 leukemia [3]): 81%
O=P1(N(CCCl)CCCl)NCCCO1 (centres unmarked) [Cyclophosphamide, cyclophosphamide]	–	–	–	–	118%	0 mice	105%	0 mice	0 mice	107%	0 mice	0 mice	97%	% ILS (L1210 leukemia [2]; dichloro complex 2.5 mg/kg): 79%
